Laboratory results from patent US20130058957A1, “DENDRITIC CELL IMMUNORECEPTOR AGONIST” (THE UNIVERSITY OF TOKYO, priority 2010, published 2013).
Values belong to the molecule of their own block, whether it stands above or below them.

Assays:
[1] = system: bone marrow cell-derived osteoclasts (OC formation); test: In vitro osteoclast formation, count of TRAP-positive multinucleate cells; format: cell-based, mouse; details: for OC differentiation in the presence of carbohydrate chain: carbohydrate chain 10 ng/mL, FIG. 8e; for OC formation (number of TRAP-positive MNCs): KS-II 100 ng/mL, FIGS. 8c, 8d
Description: Nonadherent bone marrow cells were seeded in a well plate (in a 24-well plate at 5×10^5 cells/well or in a […] at 3×10^6 cells/well) and were cultured in α-MEM (Gibco BRL) containing 10% FCS (manufactured by Biowest AG) and 10 ng/mL M-CSF (manufactured by R&D Systems, Inc.). After two days, nonadherent cells (including lymphocytes) were washed away, and remaining adherent cells were used as bone marrow-derived macrophages (BMMs). These osteoclast precursor cells (pOCs) were further cultured in the presence of 100 ng/mL of soluble RANKL (manufactured by PeproTech Inc. or Oriental Yeast Co., Ltd.) and 10 ng/mL of M-CSF to obtain osteoclasts. After three days, the osteoclasts were fixed in 10% neutral buffered formalin for three minutes, further kept in a mixture of ethanol/acetone (50:50 v:v) for 1 minute and subsequently incubated in a TRAP staining solution (Naphthol AS-MX phosphate: 5 mg, N,N-dimethylformamide: 0.5 mL, fast red violet LB salt: 30 mg, 0.1 M sodium acetate buffer (pH 5.0) containing 50 mM sodium tartrate: 50 mL) at room temperature. The number of TRAP-positive multinucleate cells (MNCs having three or more nuclei) was counted.
(§1) In order to investigate the influence of GM-CSF on osteoclast formation, mouse GM-CSF enzyme immunoassay (manufactured by PerSeptive Biosystems, Inc.), recombinant GM-CSF (manufactured by PeproTech Inc.), and anti-mouse GM-CSF neutralizing antibody (manufactured by R&D Systems, Inc.) were used. Furthermore, in the proliferation assay, pOCs were seeded (in a 96-well plate at 1×10^4 cells/well) and cultured in the presence of 10 ng/mL M-CSF only or M-CSF and 100 ng/mL RANKL or 20 ng/mL GM-CSF for three days. Subsequently, the cells were exposed to [^3H]TdR (0.5 μCi/mL) overnight.

[2] = biological target: T1, recombinant mouse DCIR (mDCIR) (Mus musculus, UniProt Q9QZ15); test: Carbohydrate chain binding assay by ELISA; details: KS-II from bovine articular cartilage immobilised on ELISA plate; FIG. 8b
T1 construct: containing an extracellular domain (99th to 238th residues) was expressed as an inclusion body in E. coli; made in house
T1 sequence (Q9QZ15 99-238): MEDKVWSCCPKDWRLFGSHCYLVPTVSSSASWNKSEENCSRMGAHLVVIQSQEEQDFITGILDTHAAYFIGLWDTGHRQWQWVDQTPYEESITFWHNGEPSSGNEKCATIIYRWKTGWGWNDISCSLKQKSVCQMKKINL
Description: Carbohydrate chain binding assay was performed in accordance with the method described in J. Bio. Chem., 2004, 279, 29043-29049. KS-II was diluted to 2 mg/mL with 100 mM sodium acetate (pH 5.5) and was oxidized with 2 mM sodium metaperiodate on ice for 1 hour to obtain a reactive aldehyde group. After further dilution, KS-II was incubated on a Covalink ELISA plate at 4° C. overnight and was reduced with 0.3% sodium cyanoborohydride at room temperature for 1.5 hours for covalent bonding. The plate was washed and was blocked with 2% bovine serum albumin (fraction V: manufactured by Sigma Corp.) at 37° C. for two hours. A recombinant mouse DCIR (mDCIR) containing an extracellular domain (99th to 238th residues) was expressed as an inclusion body in E. coli BL21 (DE3) pLysS using a pGMT7 plasmid and the […] was refolded by a typical dilution method. The mDCIR was incubated on the blocked and refolded plate at 4° C. overnight. Binding of protein was detected using anti-DCIR antibodies (a mixture of 320507 and 320511: manufactured by R&D Systems, Inc.) and HRP-linked rat IgG (manufactured by Zymed) in the presence of a TMB substrate (manufactured by Dako).

calvarial OBs = test: Mineralization of calvarial osteoblasts (alizarin red and ALP staining of osteogenic culture); format: cell-based, mouse; details: FIG. 10f
Description: Primary osteoblasts were isolated from the calvaria of a new born mouse. The calvaria was washed with PBS and was digested in α-MEM containing 0.25% trypsin and 2 mg/mL collagenase P (manufactured by Roche) at 37° C. for 20 minutes. The supernatant was removed, and the cells were further digested for 60 minutes.
In order to induce osteogenesis, primary osteoblasts (in a 96-well plate at 2×10^4 cells/well, in a 24-well plate at 5×10^4 cells/well, or in a 6-well plate at 2×10^5 cells/well) were cultured to confluent, and the culture medium was replaced by a culture medium containing 10 mM β-glycerophosphate and 50 μg/mL ascorbic acid. The culture medium was replaced three times in 21 days.
The osteoblasts cultured for 21 days were stained with alizarin red, von Kossa, and alkaline phosphatase (ALP).
The culture solution was removed from the osteoblasts cultured for 21 days by using PBS, and the osteoblasts were fixed with 3.7% formalin solution (Nacalai Tesque, Inc.) for 10 minutes. […]
Primary osteoblasts were cultured in a 96-well plate for 21 days and were measured with a TRACP & ALP Assay Kit (TaKaRa Bio Inc.). […] The reaction was terminated with 50 μL of a reaction terminating solution, and subsequently the activity was measured with MICROPLATE READER MTP-300 (CORONA ELECTRIC Co., Ltd.) at OD405.

TNF-α = TNF-α production in CpG-containing culture, measured by ELISA; format: cell-based; details: CpG 1 μM, 12 hours; KS-II 10 ng/mL, versus CpG alone; FIG. 12
Description: The anti-DCIR antibodies derived from hybridomas prepared in Example 4 were evaluated for binding ability to DCIR. Since DCIR has been reported to participate in suppression of immunoreaction (Nature Medicine, 2008, vol. 14, no. 2: 176-180), the DCIR-binding ability of each antibody was evaluated using expression of tumor necrosis factor α (TNF-α), which is an inflammatory cytokine, as a standard.
The hybridoma prepared in Example 4 was cultured in a culture medium containing CpG (concentration: 1 μM) for 12 hours, and the culture supernatant was collected. Separately, CpG ODN 1668 (Operon Technologies, Inc.) was cultured in the same medium or a medium further containing keratan sulfate (KS-II: 10 ng/mL), and the culture supernatant was collected. As a control, the cells were cultured in a CpG-free culture medium (NT). The TNF-α amount in each supernatant was measured by ELISA.

[3] = system: osteoclast precursor cells (pOCs); test: Osteoclast differentiation with hybridoma supernatant or KS-II, count of TRAP-positive osteoclasts; format: cell-based; details: KS-II 10 ng/mL; M-CSF 10 ng/mL + RANKL 100 ng/mL, three days; versus untreated; FIG. 13
Description: Furthermore, activities of the above-mentioned antibodies on osteoclast formation were evaluated using the activity of keratan sulfate as an indicator. Nonadherent bone marrow cells were seeded in a well plate (a 96-well plate at 1×10^5 cells/well) and were cultured in α-MEM (Gibco BRL) containing 10% FCS (manufactured by Biowest AG) and 10 ng/mL M-CSF (manufactured by R&D Systems, Inc.). After two days, the nonadherent cells (including lymphocytes) were washed away, and the remaining adherent cells were used as bone marrow-derived macrophages (BMMs). These osteoclast precursor cells (pOCs) were further cultured in the presence of 100 ng/mL of soluble RANKL (manufactured by PeproTech Inc. or Oriental Yeast Co., Ltd.) and 10 ng/mL of M-CSF to obtain osteoclasts. During the culturing, the hybridoma supernatant (one-tenth amount) or keratan sulfate (KS-II: 10 ng/mL) was added to the culture medium. After three days, the cells were collected and stained with TRAP. The number of TRAP-positive osteoclasts (having three or more nuclei) was counted. Untreated cells were used as a control (NT).

DCIR = biological target: T2, DCIR (Mus musculus, UniProt Q9QZ15); test: Immunoprecipitation/immunoblot analysis of DCIR activation in pOC lysate after KS-II stimulation; format: cell-based; details: immunoprecipitated with anti-DCIR antibody, FIG. 8f
T2 construct: immunoblot analysis for ITIM phosphorylation and SHP-1 recruitment in pOC lysate after KS-II stimulation; endogenous in cells; host or cells: mouse bone-marrow-derived osteoclast precursor cells (pOC)
T2 sequence (Q9QZ15 1-238): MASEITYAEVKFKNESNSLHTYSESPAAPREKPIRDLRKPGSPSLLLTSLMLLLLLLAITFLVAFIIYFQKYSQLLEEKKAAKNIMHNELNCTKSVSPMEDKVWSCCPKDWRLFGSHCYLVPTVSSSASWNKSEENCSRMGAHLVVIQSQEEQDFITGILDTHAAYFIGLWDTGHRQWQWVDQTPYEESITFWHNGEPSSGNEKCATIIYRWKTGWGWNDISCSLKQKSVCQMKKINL
Excerpt: In immunoprecipitation analysis, Protein G-Sepharose 4 Fast Flow (manufactured by GE Healthcare), mouse DCIR-specific antibody (320511: manufactured by R&D Systems, Inc.), phospho-Tyr (4G10: manufactured by Millipore), and SHP-1 (HG213: Upstate) were used. As the secondary antibody, a rabbit IgG-specific HRP-linked polyclonal antibody (manufactured by Cell Signaling) or a rat IgG-specific HRP-linked polyclonal antibody (manufactured by Zymed) was used.

OPG/RANKL ratio = test: Real-time RT-PCR of OPG/RANKL ratio in calvarial OBs; format: cell-based; details: WT mouse-derived OBs only (not KO); FIGS. 10k, 10l
Description: Semi-quantitative RT-PCR and real-time RT-PCR were slightly modified, but basically performed in accordance with the methods described in Nature Medicine, 2008, vol. 14, no. 2: 176-180 and Arthritis Res. Ther., 2006, 8, R100, 1-13. Total RNA was prepared by a typical acid guanidinium thiocyanate-phenol-chloroform method or a method using Sepasol-RNA I Super (manufactured by Nacalai Tesque, Inc.). The prepared RNA was reverse transcribed with SuperScript III First-Strand Synthesis System for RT-PCR (manufactured by Invitrogen) to prepare cDNA.
The real-time RT-PCR was performed using primers shown in Table 1, SYBR Green qPCR kit (manufactured by Invitrogen), and iCycler (manufactured by Bio-Rad Laboratories, Inc.).

[4] = system: osteoclast precursor cells (pOCs); test: Proliferation assay using pOC after GM-CSF stimulation; format: cell-based, mouse; details: Dcir−/− pOCs; M-CSF 10 ng/mL and GM-CSF 20 ng/mL
Description: as §1

Molecule: CC(=O)N[C@H]1C(O)O[C@H](CO)[C@@H](O[C@@H]2O[C@H](CO)[C@H](O)[C@H](O)[C@H]2O)[C@@H]1O (some centres unmarked) [LacNAc, N-acetyllactosamine]
OC differentiation in the presence of carbohydrate chain [1]: not influenced

Molecule: chondroitin sulfate A
OC differentiation in the presence of carbohydrate chain [1]: not influenced

Molecule: dermatan sulfate
OC differentiation in the presence of carbohydrate chain [1]: not influenced

binding of recombinant mouse DCIR to KS-II [2]: concentration-dependently binds | phosphorylation of immunoreceptor tyrosine-based inhibitory motif (ITIM) in DCIR (DCIR): concentration-dependently accelerates | recruitment of tyrosine phosphatase SHP-1 in DCIR (DCIR): concentration-dependently accelerates
Molecule: keratan sulfate-II [KS-II]
OC formation (number of TRAP-positive MNCs) ([1]; Dcir−/− cell culture): did not inhibit | OC formation (number of TRAP-positive MNCs) ([1]; wild-type (WT) bone marrow cell culture): considerably inhibited | mineralization of OBs (calvarial OBs; Dcir−/− OBs): does not suppress | mineralization of OBs (calvarial OBs; WT OBs): suppresses | TNF-α production (TNF-α): suppressed | differentiation to osteoclast (TRAP-positive, three or more nuclei) [3]: suppressed | OPG/RANKL ratio (OPG/RANKL ratio): decreases

B1: GM-CSF: recombinant mouse GM-CSF (manufactured by PeproTech Inc.) (protein, UniProt P01587 18-141, looked up)
Granulocyte-macrophage …: APTRSPITVTRPWKHVEAIKEALNLLDDMPVTLNEEVEVVSNEFSFKKLTCVQTRLKIFEQGLRGNFTKLKGALNMTASYYQTYCPPTPETDCETQVTTYADFIDSLKTFLTDIPFECKKPGQK
proliferation of pOCs [4]: significantly increased
